Measured values: patent US5238930A, “Alkenoic acid compounds for mechanism-based inactivation of dehydropeptidase activity” (Board of Governors of Wayne State University, priority 1992, dated 1993)
Entries after “also recorded” stand apart in the source; their conditions may differ.

B1: porcine dehydropeptidase I (Sus scrofa) (protein)
chain: DQFRDLAVRIMQDTPVIDGHNDLPWQLLNLFNNQLQDPGANLSSLAHTHTNIPKLKAGFVGGQFWSAYVPCDTQNRDAVKRTLEQIDVIQRMCQAYPETFACVTSSTGIRQAFREGKVASLVGVEGGHSIDSSLGVLRALYHLGMRYMTLTHSCNTPWADNWLVDTGDDKAQSQGLSHFGQSVVKEMNRLGVMIDLAHVSVATMRAALKLSQAPVIFSHSSAYSLCPHRRNVPDDVLQLVKETGSLVMVNFYNDYVSCSAKANLSQVADHLDHIKKVAGAAAVGFGGDYDGVSRVPSGLEDVSKYPDLVAELLRRQWTEAEVRGALADNLLRVFEAVEQASNHAQVPGEEPIPLGQLEASCRTNYGYSAAPSLHLPPGSLLASLVPLLLLSLP
notes: Renal dipeptidase from porcine kidney was purified by a slight modification of the literature report; from tissue; host or cells: porcine kidney

Key:
Assay in all cases: Kinetic analysis of interaction (turnover and inactivation) with porcine renal dipeptidase (dehydropeptidase I)
Assay type in all cases: biochemical
[1] = target: T1, porcine dehydropeptidase I (Sus scrofa, UniProt P22412); conditions: for kinact: read-out: kinact (first-order rate constant for inactivation) (converted); for Ki: renal dipeptidase assay with glycinyldehydrophenylalanine as substrate, read-out: Ki (reversible inhibitor constant for the formation of the EI complex)
T1 construct: Renal dipeptidase from porcine kidney was purified by a slight modification of the literature report; from tissue; host or cells: porcine kidney
T1 sequence (P22412 17-409): B1 chain
Source text: (§1) Km is the Michaelis […] for the turnover, and Ki is the reversible inhibitor constant for the formation of the EI complex. The parameters Kcat and Kinact are first-order rate constant for enzymic turnover and inactivation, respectively. The partition ratio is defined as kcat divided by kinact (i.e., kcat/ kinact).
(§2) Renal dipeptidase from porcine kidney was purified by a slight modification of the literature report (Biochem. J. 257, 361 (1989)). The spectrophotometric assay of renal dipeptidase is carried out according to the method of Campbell et al. (Methods Enzymol. 19, 722 (1970)), using glycinyldehydrophenylalanine as substrate. The substrate was synthesized according to the literature report (Synthesis Commun., 234 (1982)).
(§3) The relevant kinetic parameters for interactions of I and III with porcine dehydropeptidase I are given below.

[2] = substrate: C=C(CC(=O)CC#N)C(=O)O; conditions: other: turnover of compound by porcine dehydropeptidase I
Source text: as §1, §2, §3

[3] = substrate: C=C(NC(=O)CC#N)C(=O)O; conditions: other: turnover of compound by porcine dehydropeptidase I
Source text: as §1, §2, §3

Row | Molecule | inactivation of dehydropeptidase, overall result in words ([1]; conclusion from the kinetic table) | kcat/kinact (partition ratio) ([1]; porcine dehydropeptidase I, kcat divided by kinact) | kinact ([1]; porcine dehydropeptidase I) [s⁻¹] | Ki ([1]; porcine dehydropeptidase I) [µM] | Km [2] [mM] | Km [3] [mM]
1 | C=C(CC(=O)CC#N)C(=O)O [I, 2-Methnylene-5-Cyano-4-Oxopentanoic Acid] | very effective inactivators; also recorded: somewhat better than the ketonic compound (I) | 217 ± 37 | 0.00252 | 38 ± 1 |  | 
2 | C=C(NC(=O)CC#N)C(=O)O [III, 2-Cyanoacetamidoacrylic Acid] |  |  | 0.00462 | 18 ± 6 |  | 
3 | B1 |  |  |  |  | 10.3 | 0.416
